According to patent US9820970B2, “Method and agent for the treatment and prophylaxis of diseases caused by (+)RNA-containing viruses” (OBSSCHESTVO S OGRANICHENNOI OTVETSTVENNOSTIYU …, priority 2012, dated 2017):
Several values for one entry are separate records, joined by “and”; a condition that tells them apart may be missing. Equal values may be shown once.

Key:
dengue fever virus = test: Experimental form of dengue fever, virus proliferation in the blood of white mice; format: in vivo; details: for Level of virus accumulation in the blood, lg PFU/ml: infected intracerebrally
Method: To determine antiviral activity, white mice were infected intracerebrally with a dengue fever virus. […] Infected animals were monitored for 21 days. Biological samples were evaluated on day 5 after infection.

[1] = tested on: West Nile virus strain Eg101; test: Experimental form of West Nile Fever in white mice; details: for Protective ratio, % / Average lifetime / Extension of the average lifetime, Δ: 5 mg/kg orally; for Protective ratio, %: 10LD50 subcutaneously; for Average lifetime / Extension of the average lifetime, Δ: 10LD50
Method: In the experiment West Nile virus strain Eg101 was used. Infected animals were monitored for 21 days. Their death was controlled, and the average lifetime of the white mice were calculated in the experimental and control groups.
The main criteria of the in vivo effectiveness were the values of protection of the laboratory animals against death and the average lifetime of the animals in a group.

[2] = tested on: human rhinovirus strain (HRV 1B); test: Antiviral activity against human rhinovirus on an in vivo experimental model (virus in mouse lungs); parameters: species or system mice; details: for Infectious virus titer in lungs, lg, TCID50: orally once daily for 3 days from 12 h after infection; for Suppression of the virus reproduction (Δ lg): orally once daily for 3 days, vs normal saline
TBE virus strain Sof′ in = tested on: TBE virus strain Sof′ in; parameters: species or system white mice; details: mouse, in vivo
HCXV virus = test: Protective effectiveness against Coxsackie virus (HCXV) infection in mice; format: in vivo, white mice; details: for Total mortality rate: 10LD50 intramuscularly
[3] = Adverse side effects during long-term administration; details: long-term administration in therapeutic doses or doses greater by an order of magnitude
[4] = ribavirin, treatment scheme +24 h to +120 h
[5] = 20 mg/kg, treatment scheme +24 h to +120 h
[6] = 5 mg/kg orally, prevention scheme −96 h to −1 h
[7] = 5 mg/kg orally, treatment scheme +24 h to +168 h
[8] = 30/15 mg/kg, treatment scheme +24 h to +120 h
[9] = 0.3 mg/kg orally once daily for 5 days from 24 h after infection
[10] = 3 mg/kg orally once daily for 5 days from 24 h after infection
[11] = 30 mg/kg orally once daily for 5 days from 24 h after infection
[12] = prevention scheme −96 h to −1 h
[13] = treatment scheme +24 h to +168 h
[14] = 30 mg/kg, single administration −144 h before infection

SMILES: NC(=O)c1ncn([C@@H]2O[C@H](CO)[C@@H](O)[C@H]2O)n1 [Ribavirin, ribavirin, reference compound]
- Degree of inhibition of the virus accumulation, % (dengue fever virus; [4]): 83.4%
- Reduction in the level of virus accumulation, lg (dengue fever virus; [4]): 1.0 lg
- Level of virus accumulation in the blood, lg PFU/ml (dengue fever virus; [4]): 6.4 lg PFU/ml
- Protection against death, % of animals ([1]; 20 mg/kg, prevention scheme): 50%
- Average lifetime of animals in a group [1, 5]: 7.2 days
- Extension of the average lifetime of animals in a group, Δ [1, 5]: 0.2 days
- Protection against death, % [1, 5]: 10.0%

SMILES: O=C(O)CCCC(=O)NCCc1c[nH]cn1 [Glutaryl histamine, glutaryl histamine]
- Infectious virus titer in lungs, lg, TCID50 ([2]; 15 mg/ml, 48 hrs): 2.8 ± 0.4 lg, TCID50
- Infectious virus titer in lungs, lg, TCID50 ([2]; 15 mg/ml, 72 hrs): 2.1 ± 0.3 lg, TCID50
- Suppression of the virus reproduction (Δ lg) ([2]; 15 mg/ml, 48 hrs): 1.3 Δ lg
- Suppression of the virus reproduction (Δ lg) ([2]; 15 mg/ml, 72 hrs): 1.1 Δ lg
- Infectious virus titer in lungs, lg, TCID50 ([2]; 30 mg/ml, 48 hrs): 1.5 ± 0.3 lg, TCID50
- Infectious virus titer in lungs, lg, TCID50 ([2]; 30 mg/ml, 72 hrs): 1.0 ± 0.3 lg, TCID50
- Suppression of the virus reproduction (Δ lg) ([2]; 30 mg/ml, 48 hrs): 2.6 Δ lg
- Suppression of the virus reproduction (Δ lg) ([2]; 30 mg/ml, 72 hrs): 2.2 Δ lg
- Average lifetime (TBE virus strain Sof′ in): 15.1 days and 15.4 days and 13.6 days and 10.5 days and 10.1 days
- Extension of the average lifetime (TBE virus strain Sof′ in): 3.1 days and 3.2 days
- Extension of the average lifetime, Δ (TBE virus strain Sof′ in): 3.9 days and 2.4 days
- Protection against death, % (TBE virus strain Sof′ in): 30.0% and 40.0%
- Protective ratio, % (TBE virus strain Sof′ in): 40% and 35%
- Degree of inhibition of the virus accumulation, % (dengue fever virus; [6]): 95.5%
- Reduction in the level of virus accumulation, lg (dengue fever virus; [6]): 1.6 lg
- Level of virus accumulation in the blood, lg PFU/ml (dengue fever virus; 5 mg/kg orally, prevention scheme −96 h to −1 h, day 5 after infection): 5.0 lg PFU/ml
- Degree of inhibition of the virus accumulation, % (dengue fever virus; [7]): 98.6%
- Reduction in the level of virus accumulation, lg (dengue fever virus; [7]): 1.8 lg
- Level of virus accumulation in the blood, lg PFU/ml (dengue fever virus; 5 mg/kg orally, treatment scheme +24 h to +168 h, day 5 after infection): 4.8 lg PFU/ml
- Degree of inhibition of the virus accumulation, % (dengue fever virus; [8]): 99.6%
- Reduction in the level of virus accumulation, lg (dengue fever virus; [8]): 2.6 lg
- Level of virus accumulation in the blood, lg PFU/ml (dengue fever virus; [8]): 4.8 lg PFU/ml
- Average lifetime, (%) (HCXV virus; [9]): 24.4%
- Extension of the days lifetime, Δ, days (HCXV virus; [9]): +14.4 days
- Protective ratio, % average (HCXV virus; [9]): 45.4%
- Total mortality rate (HCXV virus; [9]): 42.9
- Average lifetime, (%) (HCXV virus; [10]): 21.7%
- Extension of the days lifetime, Δ, days (HCXV virus; [10]): +11.7 days
- Protective ratio, % average (HCXV virus; [10]): 36.4%
- Total mortality rate (HCXV virus; [10]): 50.0
- Average lifetime, (%) (HCXV virus; [11]): 19.6%
- Extension of the days lifetime, Δ, days (HCXV virus; [11]): +9.6 days
- Protective ratio, % average (HCXV virus; [11]): 27.4%
- Total mortality rate (HCXV virus; [11]): 57.1
- Adverse side effects [3]: no adverse side effects have been registered
- Protective ratio, % ([1]; prevention scheme −96 h, −72 h, −48 h, −24 h, −1 h): 42.9%
- Average lifetime [1, 12]: 11.2 days
- Extension of the average lifetime, Δ [1, 12]: 4.2 days
- Average lifetime [1, 13]: 9.8 days
- Extension of the average lifetime, Δ [1, 13]: 2.8 days
- Protective ratio, % [1, 13]: 37.8%
- Average lifetime of animals in a group [1, 14]: 10.8 days
- Extension of the average lifetime of animals in a group, Δ [1, 14]: 3.7 days
- Protection against death, % [1, 14]: 40.0%
- Protection against death, % ([1]; 30/15 mg/kg, treatment scheme +24 h, +48 h, +72 h, +96 h, +120 h): 50.0%
- Average lifetime of animals in a group [1, 8]: 11.5 days
- Extension of the average lifetime of animals in a group, Δ [1, 8]: 4.5 days
- Extension of the average lifetime of animals in a group, Δ ([1]; 30/15 mg/kg, treatment scheme +24 h to +120 h, listed as glutaryl histamine): 3.5 days
